US20090062302A1, “Jak2 Tyrosine Kinase Inhibition” (priority 2006, published 2009)

System: patients with JAK2 positive refractory MPD
Test: Clinical trial in patients with JAK2 positive refractory MPD
Type: in vivo, human
Conditions: one trial, eight patients

Cc1cc(Nc2cc(N3CCN(C)CC3)nc(Sc3ccc(NC(=O)C4CC4)cc3)n2)n[nH]1 [Compound I, Cyclopropane carboxylic acid {4-[4-(4-methyl-piperazin-1-yl)-6-(5-methyl-2H-pyrazol-3-ylamino)-pyrimidin-2-ylsulphanyl]-phenyl}-amide]
patients who achieved an objective response: six out of eight
